In patent US9115169B2, “Method of treating tumors” (Lytix Biopharma AS, priority 2000, dated 2015):
Converted amounts (≈) assume the structure as drawn. Like-named read-outs stand apart in the source and are kept apart here. Where a SMILES comes first, the peptide text is derived from it. [ ]: non-standard residue; d: D form. The star is where a group is joined. Bip = N[C@@H](Cc1ccc(-c2ccccc2)cc1)C(=O)O; 2Nal = N[C@@H](Cc1ccc2ccccc2c1)C(=O)O; Cha = N[C@@H](CC1CCCCC1)C(=O)O; βNA = c1ccc2cc(N*)ccc2c1; OBn = c1ccc(CO*)cc1

Key:
[1] = system: Staphylococcus aureus ATCC 25923; conditions: ATCC 25923
MRSE ATCC 27626 [2] = system: MRSE ATCC 27626
Method: (§1) All strains were stored at −70° C. […] All assays were performed in duplicate.

[3] = system: Escherichia coli ATCC 25922
MRSE ATCC 27626 [4] = system: MRSE ATCC 27626; remark: listed apart in the source
Method: as §1

MRSA ATCC 33591 [5] = system: MRSA ATCC 33591
Method: as §1

MRSA ATCC 33591 [6] = system: MRSA ATCC 33591; remark: listed apart in the source
Method: as §1

[7] = system: Staphylococcus aureus ATCC 25923
[8] = system: Escherichia coli ATCC 25922; conditions: ATCC 25922

Method for P. aeruginosa: as §1

Structure (SMILES)	MBC S. aureus [1]	MIC MRSE (MRSE ATCC 27626 [2]; ATCC 27626)	MIC E. coli ([3]; ATCC 25922)	MBC MRSE (MRSE ATCC 27626 [4])	MBC MRSA (MRSA ATCC 33591 [5])	MIC MRSA (MRSA ATCC 33591 [6]; ATCC 33591)	MIC S. aureus ([7]; ATCC 25923)	MBC E. coli [8]	also measured
N=C(N)NCCC[C@H](NC(=O)[C@H](Cc1ccc(O)cc1)NC(=O)[C@H](CCCNC(=N)N)NC(=O)[C@H](Cc1ccc2ccccc2c1)NC(=O)[C@@H](N)CCCNC(=N)N)C(=O)N[C@@H](Cc1ccc2ccccc2c1)C(N)=O [Arg-(2-Nal)-Arg-Tyr-Arg-(2-Nal)NH2] (H-R[2Nal]RYR[2Nal]-NH2; N-terminus assumed)	5 µg/mL (≈ 4.79 µM)	2.5 µg/mL (≈ 2.4 µM)	10 µg/mL (≈ 9.59 µM)	2.5 µg/mL (≈ 2.4 µM)	5 µg/mL (≈ 4.79 µM)	2.5 µg/mL (≈ 2.4 µM)	5 µg/mL (≈ 4.79 µM)	15 µg/mL (≈ 14.4 µM)	
N=C(N)NCCC[C@H](NC(=O)[C@@H](N)Cc1ccc(-c2ccccc2)cc1)C(=O)OCc1ccccc1 [BipR-OBzl] (H-[Bip]-Arg-OBn; N-terminus assumed)		5.0 µg/mL (≈ 10.3 µM)	150.0 µg/mL (≈ 308 µM)			5.0 µg/mL (≈ 10.3 µM)	5.0 µg/mL (≈ 10.3 µM)		MIC P. aerug. (P. aeruginosa): 100.0 µg/mL (≈ 205 µM)
COC(=O)[C@H](CCCNC(=N)N)NC(=O)[C@@H](N)Cc1ccc(-c2ccccc2)cc1 [BipR-OMe] (H-[Bip]-Arg-OMe; N-terminus assumed)		50.0 µg/mL (≈ 122 µM)	>300.0 µg/mL			50.0 µg/mL (≈ 122 µM)	150.0 µg/mL (≈ 365 µM)		MIC P. aerug. (P. aeruginosa): >300.0 µg/mL
N=C(N)NCCC[C@H](NC(=O)[C@@H](N)CC1CCCCC1)C(=O)OCc1ccccc1 [ChxAR-OBzl] (H-[Cha]-Arg-OBn; N-terminus assumed)		25.0 µg/mL (≈ 59.9 µM)	300.0 µg/mL (≈ 718 µM)			25 to 37.5 µg/mL	50 to 100 µg/mL		MIC P. aerug. (P. aeruginosa): >300.0 µg/mL
N=C(N)NCCC[C@H](NC(=O)[C@@H](N)Cc1ccccc1)C(=O)OCc1ccccc1 [FR-Obzl] (H-Phe-Arg-OBn; N-terminus assumed)									MIC P. aerug. (P. aeruginosa): >300.0 µg/mL
N=C(N)NCCC[C@H](NC(=O)[C@@H](N)Cc1ccccc1)C(=O)Nc1ccc2ccccc2c1 [FRβNA] (H-Phe-Arg-βNA)									Minimum inhibitory concentration MRSE (MRSE ATCC 27626 [2]; Table 9): 5 µg/mL (≈ 11.2 µM); Minimum inhibitory concentration E. coli ([3]; Table 9): >150 µg/mL; Minimum inhibitory concentration MRSA (MRSA ATCC 33591 [6]; Table 9): 12.5 µg/mL (≈ 28 µM); Minimum inhibitory concentration P. aeruginosa (P. aeruginosa; Table 9): >300 µg/mL; Minimum inhibitory concentration S. aureus ([7]; Table 9): 5 µg/mL (≈ 11.2 µM)
NCCCC[C@H](N)C(=O)O[C@@H](Cc1c[nH]c2ccccc12)C(=O)OCc1ccccc1 [Kψ(COO)WOBzl]									Minimum inhibitory concentration MRSE (MRSE ATCC 27626 [2]; ATCC 27626): 37.5 µg/mL (≈ 88.5 µM); Minimum inhibitory concentration E. coli ([3]; ATCC 25922): 150 µg/mL (≈ 354 µM); Minimum inhibitory concentration MRSA (MRSA ATCC 33591 [6]; ATCC 33591): 100 µg/mL (≈ 236 µM); Minimum inhibitory concentration P. aeruginosa (P. aeruginosa): 300 µg/mL (≈ 708 µM); Minimum inhibitory concentration S. aureus ([7]; ATCC 25923): 50 µg/mL (≈ 118 µM)
NCCCC[C@H](N)C(=O)O[C@H](Cc1c[nH]c2ccccc12)C(=O)OCc1ccccc1 [Kψ(COO)wOBzl]									Minimum inhibitory concentration MRSE (MRSE ATCC 27626 [2]; ATCC 27626): 37.5 µg/mL (≈ 88.5 µM); Minimum inhibitory concentration E. coli ([3]; ATCC 25922): 150 µg/mL (≈ 354 µM); Minimum inhibitory concentration MRSA (MRSA ATCC 33591 [6]; ATCC 33591): 100 µg/mL (≈ 236 µM); Minimum inhibitory concentration P. aeruginosa (P. aeruginosa): 300 µg/mL (≈ 708 µM); Minimum inhibitory concentration S. aureus ([7]; ATCC 25923): 50 µg/mL (≈ 118 µM)
N=C(N)NCCC[C@H](N)C(=O)N[C@@H](Cc1c[nH]c2ccccc12)C(=O)OCc1ccccc1 [RW OBz] (H-Arg-Trp-OBn)	50 (50) μg/ml	20 (20) μg/ml	>200 (>200) μg/ml	20 (20) μg/ml	50 µg/mL (≈ 111 µM)	25 µg/mL (≈ 55.5 µM)	50 (50) μg/ml	>200 (>200) μg/ml	
COC(=O)[C@H](CCCNC(=N)N)NC(=O)[C@H](Cc1c[nH]c2ccccc12)NC(=O)[C@@H](N)CCCNC(=N)N [RWR-OMe, H-L-Arg-L-Trp-L-Arg-OMe] (H-Arg-Trp-Arg-OMe)	>200 (>200) μg/ml			200 µg/mL (≈ 377 µM)	>200 (>200) μg/ml			>200 (>200) μg/ml	
N=C(N)NCCC[C@H](NC(=O)[C@H](Cc1c[nH]c2ccccc12)NC(=O)[C@@H](N)CCCNC(=N)N)C(=O)N[C@@H](Cc1c[nH]c2ccccc12)C(=O)OCc1ccccc1 [RWRW-OBzl, H-L-Arg-L-Trp-L-Arg-L-Trp-OBzl] (H-RWRW-OBn)	5 to 10 µg/mL	2.5 (2.5) μg/ml	75 µg/mL (≈ 94.6 µM)	2.5 (2.5) μg/ml	5 to 10 µg/mL	5 µg/mL (≈ 6.31 µM)	5 µg/mL (≈ 6.31 µM)	100 µg/mL (≈ 126 µM)	
COC(=O)[C@H](CCCNC(=N)N)NC(=O)[C@H](Cc1c[nH]c2ccccc12)NC(=O)[C@H](Cc1c[nH]c2ccccc12)NC(=O)[C@@H](N)CCCNC(=N)N [RWWR-OMe, H-L-Arg-L-Trp-L-Trp-L-Arg-OMe] (H-RWWR-OMe)	100 to 200 µg/mL			20 (20) μg/ml	100 to 200 µg/mL		75 µg/mL (≈ 105 µM)	>200 (>200) μg/ml	
N=C(N)NCCC[C@H](N)C(=O)N[C@@H](Cc1c[nH]c2ccccc12)C(=O)N[C@H](CCCNC(=N)N)C(=O)N[C@H](Cc1c[nH]c2ccccc12)C(=O)OCc1ccccc1 [RWrw-OBzl, H-L-Arg-L-Trp-D-Arg-D-Trp-OBzl] (H-RW[dR][dW]-OBn)	5 (5) μg/ml	2.5 (2.5) μg/ml	75 µg/mL (≈ 94.6 µM)	2.5 (2.5) μg/ml	5 µg/mL (≈ 6.31 µM)	2.5 to 5 µg/mL	5 (5) μg/ml	75 to 100 µg/mL	
N=C(N)NCCC[C@H](NC(=O)[C@@H](N)Cc1c[nH]c2ccccc12)C(=O)OCc1ccccc1 [WR-OBzl] (H-Trp-Arg-OBn; N-terminus assumed)		50.0 µg/mL (≈ 111 µM)				37.5 µg/mL (≈ 83.2 µM)			MIC P. aerug. (P. aeruginosa): >300.0 µg/mL
COC(=O)[C@H](CCCNC(=N)N)NC(=O)[C@@H](N)Cc1c[nH]c2ccccc12 [WR-OMe, H-L-Trp-L-Arg-OMe] (H-Trp-Arg-OMe)	>200 (>200) μg/ml			>200 (>200) μg/ml	>200 (>200) μg/ml			>200 (>200) μg/ml	
N=C(N)NCCC[C@H](NC(=O)[C@@H](N)Cc1c[nH]c2ccccc12)C(=O)N[C@@H](Cc1c[nH]c2ccccc12)C(=O)OCc1ccccc1 [WRW OBz] (H-Trp-Arg-Trp-OBn)	5 (5) μg/ml	5 (5) μg/ml	75 µg/mL (≈ 118 µM)	5 (5) μg/ml	10 µg/mL (≈ 15.7 µM)	5 µg/mL (≈ 7.85 µM)	5 (5) μg/ml	200 µg/mL (≈ 314 µM)	
COC(=O)[C@H](CCCNC(=N)N)NC(=O)[C@H](Cc1c[nH]c2ccccc12)NC(=O)[C@@H](N)Cc1c[nH]c2ccccc12 [WWR-OMe, H-L-Trp-L-Trp-L-Arg-OMe] (H-Trp-Trp-Arg-OMe)	>200 (>200) μg/ml			>200 (>200) μg/ml	>200 (>200) μg/ml			>200 (>200) μg/ml	
N=C(N)NCCC[C@@H](N)C(=O)N[C@H](Cc1c[nH]c2ccccc12)C(=O)OCc1ccccc1 [rw OBz] (H-[dR]-[dW]-OBn)	75 µg/mL (≈ 166 µM)	20 µg/mL (≈ 44.4 µM)	>200 (>200) μg/ml	25 µg/mL (≈ 55.5 µM)	75 µg/mL (≈ 166 µM)	50 µg/mL (≈ 111 µM)	50 µg/mL (≈ 111 µM)	>200 (>200) μg/ml	
N=C(N)NCCC[C@H](NC(=O)[C@H](N)Cc1c[nH]c2ccccc12)C(=O)N[C@@H](Cc1c[nH]c2ccccc12)C(=O)OCc1ccccc1 [wRW OBz] (H-[dW]-Arg-Trp-OBn)	20 (20) μg/ml	10 (10) μg/ml	75 µg/mL (≈ 118 µM)	10 (10) μg/ml	20 (20) μg/ml	20 (20) μg/ml	20 (20) μg/ml	100 µg/mL (≈ 157 µM)	
N=C(N)NCCC[C@@H](NC(=O)[C@H](N)Cc1c[nH]c2ccccc12)C(=O)N[C@H](Cc1c[nH]c2ccccc12)C(=O)OCc1ccccc1 [wrw OBz] (H-[dW]-[dR]-[dW]-OBn)	5 (5) μg/ml	5 (5) μg/ml	75 µg/mL (≈ 118 µM)	5 (5) μg/ml	10 µg/mL (≈ 15.7 µM)	5 µg/mL (≈ 7.85 µM)	5 (5) μg/ml	200 µg/mL (≈ 314 µM)	
